Measured values published in patent US6472348B1, “Pyridone derivatives and herbicides” (Kumiai Chemical Industry Co., Ltd., priority 1996, dated 2002).

Legend:
Assay type in all cases: in vivo
[1] = tested on: barnyardgrass (Ec); assay: Test Example 1: herbicidal effects by paddy field soil treatment; conditions: 100 g of the active ingredient per 10 ares, 21st day after the application, index 0-5 of Table 47;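 also: grade of growth control; 5 = at least 90%; 4 = 70 to 90%; 3 = 50 to 70%; 2 = 30 to 50%; 1 = 10 to 30%; 0 = under 10%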
Method in brief: (§1)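 Herbicidal effect was scored against a graded standard 21 days after treatment. Seeds were sown in puddled, leveled paddy soil flooded to 3 cm depth, and the active ingredient was applied at 100 g per 10 ares before greenhouse culture.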

[2] = tested on: bulrush (Sc); assay: as above; conditions: 100 g of the active ingredient per 10 ares, 21st day after the application, index 0-5 of Table 47;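 also: grade of growth control; 5 = at least 90%; 4 = 70 to 90%; 3 = 50 to 70%; 2 = 30 to 50%; 1 = 10 to 30%; 0 = under 10%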
Method in brief: as §1

[3] = tested on: monochoria (Mo); assay: as above; conditions: 100 g of the active ingredient per 10 ares, 21st day after the application, index 0-5 of Table 47;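 also: grade of growth control; 5 = at least 90%; 4 = 70 to 90%; 3 = 50 to 70%; 2 = 30 to 50%; 1 = 10 to 30%; 0 = under 10%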
Method in brief: as §1

[4] = tested on: Digitaria ciliaris (Di); assay: Test Example 2: herbicidal effects by upland field soil treatment; conditions: 100 g of the active ingredient per 10 ares, evaluated on the 21st day after application;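 also: grade of growth control; 5 = at least 90%; 4 = 70 to 90%; 3 = 50 to 70%; 2 = 30 to 50%; 1 = 10 to 30%; 0 = under 10%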
Source text: (§2) (Test on Herbicidal Effects by Upland Field Soil Treatment)

[5] = tested on: barnyardgrass (Ec); assay: as above; conditions: 100 g of the active ingredient per 10 ares, evaluated on the 21st day after application
Source text: as §2

[6] = tested on: common lambsquarters (Ch); assay: as above; conditions: 100 g of the active ingredient per 10 ares, evaluated on the 21st day after application
Source text: as §2

[7] = tested on: pale smartweed (Po); assay: as above; conditions: 100 g of the active ingredient per 10 ares, evaluated on the 21st day after application
Source text: as §2

[8] = tested on: rice flatsedge (Ci); assay: as above; conditions: 100 g of the active ingredient per 10 ares, evaluated on the 21st day after application
Source text: as §2

[9] = tested on: slender amaranth (Am); assay: as above; conditions: 100 g of the active ingredient per 10 ares, evaluated on the 21st day after application
Source text: as §2

[10] = tested on: Diaitaria ciliaris (Di); assay: Test Example 3: herbicidal effects by upland field foliage treatment; design: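 grade of growth control; 5 = at least 90%; 4 = 70 to 90%; 3 = 50 to 70%; 2 = 30 to 50%; 1 = 10 to 30%; 0 = under 10%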; conditions: 100 g active ingredient per 10 ares, evaluated 14th day after treatment
Method in brief: (§3)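 Sowing into sand pots with a 120 cm^2 surface, followed by soil covering and 2 weeks of greenhouse growth, preceded the leaf treatment. Scoring of weed control took place on the 14th day afterwards according to set evaluation criteria.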

[11] = tested on: barnyardgrass (Ec); assay: as above; design: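 grade of growth control; 5 = at least 90%; 4 = 70 to 90%; 3 = 50 to 70%; 2 = 30 to 50%; 1 = 10 to 30%; 0 = under 10%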; conditions: 100 g active ingredient per 10 ares, evaluated 14th day after treatment
Method in brief: as §3

[12] = tested on: common lambsquarters (Ch); assay: as above; design: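 grade of growth control; 5 = at least 90%; 4 = 70 to 90%; 3 = 50 to 70%; 2 = 30 to 50%; 1 = 10 to 30%; 0 = under 10%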; conditions: 100 g active ingredient per 10 ares, evaluated 14th day after treatment
Method in brief: as §3

[13] = tested on: pale smartweed (Po); assay: as above; design: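 grade of growth control; 5 = at least 90%; 4 = 70 to 90%; 3 = 50 to 70%; 2 = 30 to 50%; 1 = 10 to 30%; 0 = under 10%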; conditions: 100 g active ingredient per 10 ares, evaluated 14th day after treatment
Method in brief: as §3

[14] = tested on: rice flatsedge (Ci); assay: as above; design: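 grade of growth control; 5 = at least 90%; 4 = 70 to 90%; 3 = 50 to 70%; 2 = 30 to 50%; 1 = 10 to 30%; 0 = under 10%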; conditions: 100 g active ingredient per 10 ares, evaluated 14th day after treatment
Method in brief: as §3

[15] = tested on: slender amaranth (Am); assay: as above; design: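 grade of growth control; 5 = at least 90%; 4 = 70 to 90%; 3 = 50 to 70%; 2 = 30 to 50%; 1 = 10 to 30%; 0 = under 10%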; conditions: 100 g active ingredient per 10 ares, evaluated 14th day after treatment
Method in brief: as §3

Row | SMILES | Herbicidal effects Ec [1] | Herbicidal effects Sc [2] | Herbicidal effects Mo [3] | Herbicidal effects Di [4] | Herbicidal effects Ec [5] | Herbicidal effects Ch [6] | Herbicidal effects Po [7] | Herbicidal effects Ci [8] | Herbicidal effects Am [9] | Herbicidal effects Di [10] | Herbicidal effects Ec [11] | Herbicidal effects Ch [12] | Herbicidal effects Po [13] | Herbicidal effects Ci [14] | Herbicidal effects Am [15]
1 | C#CC(CC)Oc1cc(Cl)cc(F)c1-c1ccc(C(F)(F)F)n(C)c1=O (stereo not drawn) [1′-6] | 5 | 5 | 5 | 5 | 5 | 5 | 5 | 5 | 5 | 5 | 5 | 5 | 5 | 5 | 5
2 | C#CCN1C(=O)COc2ccc(-c3ccc(C(F)(F)F)n(C)c3=O)cc21 [2-29] | 5 | 5 | 5 | 5 | 5 | 5 | 5 | 5 | 5 | 5 | 5 | 5 | 5 | 5 | 5
3 | CC(=O)c1cc(-c2ccc(C(F)(F)F)n(C)c2=O)c(F)cc1Cl [Compound 1-190] | 5 | 5 | 5 | 5 | 5 | 5 | 5 | 5 | 5 | 5 | 5 | 5 | 5 | 5 | 5
4 | CC(C)C(O)c1cc(-c2ccc(C(F)(F)F)n(C)c2=O)c(F)cc1Cl (stereo not drawn) [Compound 1-195] | 5 | 5 | 5 | 5 | 5 | 5 | 5 | 5 | 5 | 5 | 5 | 5 | 5 | 5 | 5
5 | CCOCOc1cc(-c2ccc(C(F)(F)F)n(C)c2=O)c(Cl)cc1Cl [Compound 1-206] | 5 | 5 | 5 | 5 | 5 | 5 | 5 | 5 | 5 | 5 | 5 | 5 | 5 | 5 | 5
6 | C#CCNC(=O)COc1cc(-c2ccc(C(F)(F)F)n(C)c2=O)c(F)cc1Cl [Compound 1-210] | 5 | 5 | 5 | 4 | 5 | 5 | 5 | 5 | 5 | 5 | 4 | 5 | 5 | 5 | 5
7 | COCCOc1cc(-c2ccc(C(F)(F)F)n(C)c2=O)c(Cl)cc1Cl [Compound 1-211] | 5 | 5 | 5 | 5 | 5 | 5 | 5 | 5 | 5 | 5 | 4 | 5 | 5 | 5 | 5
8 | CNS(=O)(=O)c1cc(-c2ccc(C(F)(F)F)n(C)c2=O)c(Cl)cc1Cl [Compound 1-256] | 5 | 5 | 5 | 5 | 5 | 5 | 5 | 5 | 5 | 5 | 5 | 5 | 5 | 5 | 5
9 | C=C(C)CN1C(=O)COc2cc(F)c(-c3ccc(C(F)(F)F)n(C)c3=O)cc21 [Compound 2-11] | 5 | 5 | 5 | 5 | 5 | 5 | 5 | 5 | 5 | 5 | 5 | 5 | 5 | 5 | 5
10 | CC=CCN1C(=O)COc2cc(F)c(-c3ccc(C(F)(F)F)n(C)c3=O)cc21 [Compound 2-12] | 5 | 5 | 5 | 5 | 5 | 5 | 5 | 5 | 5 | 5 | 5 | 5 | 5 | 5 | 5
11 | C=C(Cl)CN1C(=O)COc2cc(F)c(-c3ccc(C(F)(F)F)n(C)c3=O)cc21 [Compound 2-13] | 5 | 5 | 5 | 5 | 5 | 5 | 5 | 5 | 5 | 5 | 5 | 5 | 5 | 5 | 5
12 | CN1C(=O)COc2cc(F)c(-c3ccc(C(F)(F)F)n(C)c3=O)cc21 [Compound 2-16] | 5 | 5 | 5 | 5 | 5 | 5 | 5 | 5 | 5 | 5 | 5 | 5 | 5 | 5 | 5
13 | Cc1cc2c(-c3ccc(C(F)(F)F)n(C)c3=O)c(Cl)cc(Cl)c2o1 [Compound 4-10] | 5 | 5 | 5 | 5 | 5 | 5 | 5 | 5 | 5 | 5 | 5 | 5 | 5 | 5 | 5
